US9271977B2, “Sanglifehrin derivatives and methods for their production” (NeuroVive Pharmaceutical AB, priority 2010, dated 2016)
Like-named read-outs stand apart in the source and are kept apart here.

What was measured:
[1] = test system: HCV genotype 1b I389Iuc-ubi-neo/NS3-3′/5.1 replicon in Huh5.2 cells; experiment: microbe, parasite or virus in culture; format: cell-based, Hepatitis C Virus; details: for Selectivity index (CC50/EC50): Huh5.2 replicon assay
Procedure: (§1) Antiviral efficacy against genotype 1 HCV may be tested as follows: One day before addition of the test article, Huh5.2 cells, containing the HCV genotype 1b I389Iuc-ubi-neo/NS3-3′/5.1 replicon (Vrolijk et al., 2003) and subcultured in cell growth medium [DMEM (Cat No. 41965039) supplemented with 10% FCS, 1% non-essential amino acids (11140035), 1% penicillin/streptomycin (15140148) and 2% Geneticin (10131027); Invitrogen] at a ratio of 1.3-1.4 and grown for 3-4 days in […] tissue culture flasks (Techno Plastic Products), were harvested and seeded in assay medium (DMEM, 10% FCS, 1% non-essential amino acids, 1% penicillin/streptomycin) at a density of 6500 cells/well (100 uL/well) in 96-well tissue culture microtitre plates (Falcon, Beckton Dickinson for evaluation of the anti-metabolic effect and CulturPlate, Perkin Elmer for evaluation of antiviral effect). The microtitre plates are incubated overnight (37° C., 5% CO2, 95-99% relative humidity), yielding a non-confluent cell monolayer.
(§2) Dilution series are prepared; each dilution series is performed in at least duplicate. Following assay setup, the microtitre plates are incubated for 72 hours (37° C., 5% CO2, 95-99% relative humidity).
For the evaluation of antiviral effects, assay medium is aspirated and the cell monolayers are washed with PBS. The wash buffer is aspirated, 25 uL of Glo Lysis Buffer (Cat. No. E2661, Promega) is added after which lysis is allowed to proceed for 5 min at room temperature. Subsequently, 50 uL of Luciferase Assay System (Cat. No. E1501, Promega) is added and the luciferase luminescence signal is quantified immediately (1000 ms integration time/well, Safire^2, Tecan). Relative luminescence units are converted to percentage of untreated controls.
(§3) The selectivity index (SI), indicative of the therapeutic window of the compound, is calculated as CC50/EC50.
(§4) Compounds were analysed in the replicon assay using Huh5.2 cells as described in the General Methods.

[2] = Microsome stability assay, human liver microsomes; format: in vitro ADME; details: for stability in human liver microsomes compared to sanglifehrin A (in words): compared to sanglifehrin A (5)
Procedure: (§5) Mouse or human liver microsomes were diluted with buffer C (0.1 M Potassium Phosphate buffer, 1.0 mM EDTA, pH 7.4) to a concentration of 2.5 mg/mL. Microsomal stability samples were then prepared by adding 50 uL of 5 uM compound spiking solution (0.5 uL 10 mM DMSO stock solution in 9.5 uL ACN, added to 990 uL Buffer C) to 50 μL of microsomal solution (2.5 mg/mL), 110 uL Buffer C and mixed well. All samples were pre-incubated for approximately 15 minutes at 37° C. Following this, the reaction was initiated by adding 40 uL of the NADPH solution (12.5 mM) with gentle mixing. Aliquots (40 uL) were removed at 0, 15, 30, 45 and 60 minutes and quenched with ACN containing internal standard (120 uL). Protein was removed by centrifugation (4000 rpm, 15 min) and the sample plate analysed for compound concentration by LC-MS/MS. Half-lives were then calculated by standard methods, comparing the concentration of analyte wth the amount originally present.
(§6) Stability of the compounds in human and mouse liver microsomes was analysed as described in the General Methods. Sanglifehrin A, 5 was included as a comparison.

[3] = test system: Huh5.2 cells; experiment: Anti-metabolic effect (MTS) in the replicon cell line; details: Huh5.2 cells, 72 hours, MTS metabolic activity
Procedure: as §1, §2
(§7) For the evaluation of anti-metabolic effects, the assay medium is aspirated, replaced with 75 uL of a 5% MTS (Promega) solution in phenol red-free medium and incubated for 1.5 hours (37° C., 5% CO2, 95-99% relative humidity). Absorbance is measured at a wavelength of 498 nm (Safire^2, Tecan) and optical densities (OD values) are converted to percentage of untreated controls.
as §3, §4

[4] = Microsome stability assay, mouse liver microsomes; format: in vitro ADME; details: for stability in mouse liver microsomes compared to sanglifehrin A (in words): compared to sanglifehrin A (5)
Procedure: as §5, §6

[5] = in vitro; details: human
Procedure: as §1, §2, §7, §3, §4

[6] = test system: HBV; details: cited from earlier work
[7] = human, in vivo; cited from earlier work
[8] = test system: HIV-1; details: clinical, cited from earlier work
[9] = target: cyclophilin A (CyPA) (Homo sapiens, UniProt P62937); details: relative to CsA; cited from earlier work
[10] = Huh5.2 cells, HCV genotype 1b replicon, 72 hours, luciferase signal, read-out: EC50
[11] = human liver microsomes, NADPH, 37° C.
[12] = mouse liver microsomes, NADPH, 37° C.
[13] = Hepatitis C virus, Huh-5-2, Huh5.2 cells, HCV genotype 1b replicon, 72 hours, luciferase signal, read-out: EC50
[14] = pH 7.4, human liver microsomes, NADPH, 37° C.
[15] = pH 7.4, mouse liver microsomes, NADPH, 37° C.

Sequence of cyclophilin A (CyPA) (P62937 whole entry): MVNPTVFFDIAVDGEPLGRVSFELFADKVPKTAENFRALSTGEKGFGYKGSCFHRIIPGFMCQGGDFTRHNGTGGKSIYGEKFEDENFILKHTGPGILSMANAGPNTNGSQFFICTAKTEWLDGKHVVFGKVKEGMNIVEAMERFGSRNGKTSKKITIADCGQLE

Compound	stability in human liver microsomes compared to sanglifehrin A (in words) [2]	potency in the Huh5.2 replicon assay (in words) [1]	EC50 [1, 13] [µM]	Selectivity index (CC50/EC50) [1]	half-life [2, 14] [min]	CC50 [5] [µM]	stability in mouse liver microsomes compared to sanglifehrin A (in words) [4]	half-life [4, 15] [min]	other results
58-des(3-hydroxyphenyl)-58-(3-hydroxy(2-pyridyl)-sanglifehrin A [Compound 19]	increased stability								EC50 [1, 10]: 24.3 µM; Human liver microsome half life [2, 11]: 10.37 min; CC50 [3]: 48.1 µM; Mouse liver microsome half life [4, 12]: 4.71 min
CC[C@H]1C[C@H](C)[C@@]2(NC1=O)O[C@@H](C[C@H](O)[C@@H](C)CC/C=C/C=C(\C)[C@@H]1C/C=C/C=C/[C@H](O)[C@H](C)[C@@H](O)[C@@H](CCC(C)=O)C(=O)N[C@@H](C(C)C)C(=O)N[C@@H](Cc3cc(O)cc(F)c3)C(=O)N3CCCC(N3)C(=O)O1)[C@H](C)[C@H](O)[C@@H]2C (stereo partly shown) [Compound 14, 63-Fluoro Sanglifehrin a]	increased stability	very potent	0.135	121	9.32	12.8	more stable	9.78	
CC[C@H]1C[C@H](C)[C@@]2(NC1=O)O[C@@H](C[C@H](O)[C@@H](C)CC/C=C/C=C(\C)[C@@H]1C/C=C/C=C/[C@H](O)[C@H](C)[C@@H](O)[C@@H](CCC(C)=O)C(=O)N[C@@H](C(C)C)C(=O)N[C@@H](Cc3cc(O)c(F)c(F)c3)C(=O)N3CCCC(N3)C(=O)O1)[C@H](C)[C@H](O)[C@@H]2C (stereo partly shown) [Compound 15, 62,63-Fluoro Sanglifehrin A]	increased stability	very potent	0.195	88	10.8	16.6	more stable	9.22	
CC[C@H]1C[C@H](C)[C@@]2(NC1=O)O[C@@H](C[C@H](O)[C@@H](C)CC/C=C/C=C(\C)[C@@H]1C/C=C/C=C/[C@H](O)[C@H](C)[C@@H](O)[C@@H](CCC(C)=O)C(=O)N[C@@H](C(C)C)C(=O)N[C@@H](Cc3ccc(F)c(O)c3)C(=O)N3CCCC(N3)C(=O)O1)[C@H](C)[C@H](O)[C@@H]2C (stereo partly shown) [Compound 16, 62-Fluoro Sanglifehrin A]	increased stability	very potent	0.89	32	6.61	29.7		5.48	
CC[C@H]1C[C@H](C)[C@@]2(NC1=O)O[C@@H](C[C@H](O)[C@@H](C)CC/C=C/C=C(\C)[C@@H]1C/C=C/C=C/[C@H](O)[C@H](C)[C@@H](O)[C@@H](CCC(C)=O)C(=O)N[C@@H](C(C)C)C(=O)N[C@@H](Cc3ccc(C)c(O)c3)C(=O)N3CCCC(N3)C(=O)O1)[C@H](C)[C@H](O)[C@@H]2C (stereo partly shown) [Compound 17, 62-Methyl Sanglifehrin A]	increased stability	very potent	0.083	143	9.5	11.6	more stable	9.67	
CC[C@H]1C[C@H](C)[C@@]2(NC1=O)O[C@@H](C[C@H](O)[C@@H](C)CC/C=C/C=C(\C)[C@@H]1C/C=C/C=C/[C@H](O)[C@H](C)[C@@H](O)[C@@H](CCC(C)=O)C(=O)N[C@@H](C(C)C)C(=O)N[C@@H](Cc3ccccc3)C(=O)N3CCCC(N3)C(=O)O1)[C@H](C)[C@H](O)[C@@H]2C (stereo partly shown) [Compound 18, 61-Deshydroxy Sanglifehrin A]	increased stability		3.4			11.7			half-life at 1 µM [2, 14]: 7.64 min; half-life at 1 µM [4, 15]: 3.46 min
C/C=C/CC(C)C(O)C1C(=O)NC(CC)C(=O)N(C)CC(=O)N(C)C(CC(C)C)C(=O)NC(C(C)C)C(=O)N(C)C(CC(C)C)C(=O)NC(C)C(=O)NC(C)C(=O)N(C)C(CC(C)C)C(=O)N(C)C(CC(C)C)C(=O)N(C)C(C(C)C)C(=O)N1C (stereo not shown) [Cyclosporine A, 1, Cyclosporine A, reference compound]		less potent							EC50 ([1]; Hepatitis C virus, Huh-5-2, 72 h): 0.2 µM; IC50 against HBV ([6]; Xie et al., 2007): > 1.3 mg/L
C/C=C/C[C@@H](C)[C@@H](O)[C@H]1C(=O)N[C@@H](CC)C(=O)N(C)[C@H](C)C(=O)N(CC)[C@@H](C(C)C)C(=O)N[C@@H](C(C)C)C(=O)N(C)[C@@H](CC(C)C)C(=O)N[C@@H](C)C(=O)N[C@H](C)C(=O)N(C)[C@@H](CC(C)C)C(=O)N(C)[C@@H](CC(C)C)C(=O)N(C)[C@@H](C(C)C)C(=O)N1C [DEBIO-025]									discontinuation of treatment caused by hyperbilirubinemia [7]: 4 out of 16; reduction of HIV-1 RNA levels (in words) ([8]; 27 of the treated patients (Steyn et al., 2006)): no reduction; reduction of HIV-1 RNA levels ([8]; in nine patients (Steyn et al., 2006)): ≥ 0.5 log 10 copies/mL; reduction of HIV-1 RNA levels ([8]; in two patients (Steyn et al., 2006)): > 1 log 10 copies/mL; IC50 ([6]; Ptak et al. 2008, read-out: IC50 against HBV): 4.1 µM
CC(=O)CC[C@H]1C(=O)N[C@@H](C(C)C)C(=O)N[C@@H](Cc2cccc(O)c2)C(=O)N2CCC[C@H](N2)C(=O)O[C@H](/C(C)=C/CO)C/C=C/C=C/[C@H](O)[C@H](C)[C@H]1O [Hydroxymacrocycle, 6, reference compound]			8.4	9.9		83.6			
CC[C@H]1C[C@H](C)[C@@]2(NC1=O)O[C@@H](C[C@H](O)[C@@H](C)CC/C=C/C=C(\C)[C@@H]1C/C=C/C=C/[C@H](O)[C@H](C)[C@@H](O)[C@@H](CCC(C)=O)C(=O)N[C@@H](C(C)C)C(=O)N[C@@H](Cc3cccc(O)c3)C(=O)N3CCC[C@H](N3)C(=O)O1)[C@H](C)[C@H](O)[C@@H]2C [Sanglifehrin A, 5, Sanglifehrin A, reference compound]		less potent							EC50 [1, 10]: 0.318 µM; Human liver microsome half life [2, 11]: 6.38 min; CC50 [3]: 9.1 µM; higher affinity for CyPA compared to CsA [9]: approximately 20 fold; Mouse liver microsome half life [4, 12]: 6.15 min
